Read-outs that look alike come from different tables or passages of the source. Non-standard residues stand in square brackets, D forms with d. Residues, ends and D or L forms follow the SMILES beside them. *: point of attachment. Dmt = Cc1cc(O)cc(C)c1C[C@H](N)C(=O)O; Tic = O=C(O)[C@@H]1Cc2ccccc2CN1; NHNH2 = NN*
Columns and labels:
δ-opioid receptors [1] = biological target: T1, δ-opioid receptors (Rattus norvegicus, UniProt P33533); test: Rat brain synaptosome (P2) binding, agonist [3H]DPDPE (Example 47); conditions: for Agonist K1μ/Kiδ: selectivity, Kiδ from agonist radioligand [3H]DPDPE; for δ/μ selectivity, in words / δ affinity, in words: from Table II binding
T1 construct: assayed with a rat brain synaptosomal preparation (P2); from tissue; host or cells: rat brain P2 synaptosomes
T1 sequence (P33533 whole entry): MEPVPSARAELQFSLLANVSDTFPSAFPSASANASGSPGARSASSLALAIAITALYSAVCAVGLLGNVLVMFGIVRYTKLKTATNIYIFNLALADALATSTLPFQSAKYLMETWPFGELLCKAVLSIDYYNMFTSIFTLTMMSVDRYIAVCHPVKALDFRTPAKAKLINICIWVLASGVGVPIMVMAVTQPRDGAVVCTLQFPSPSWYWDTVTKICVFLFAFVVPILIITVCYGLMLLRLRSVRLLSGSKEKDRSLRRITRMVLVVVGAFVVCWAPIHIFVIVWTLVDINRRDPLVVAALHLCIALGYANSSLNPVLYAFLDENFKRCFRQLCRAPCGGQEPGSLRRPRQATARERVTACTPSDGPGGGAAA
Description: Briefly, the agonists [^3H]DPDPE (30-60 Ci/mmol, NEN-DuPont) and [^3H]DAGO (30-60 Ci/mmol, Amersham) were used to label δ and μ sites, respectively, under saturation binding conditions (2 hrs at 22° C.). Excess unlabeled peptide (2 μM) established non-specific binding levels and the labeled membranes were rapidly filtered on Whatman GF/C glass fibre filters, thoroughly washed, dried and measured for radioactivity using CytoScint (ICN, Irvine, Calif.). […] The affinity constants (Ki) were calculated according to Cheng and Prusoff (Biochem. Pharmacol. 22: 3099-3108 (1973)).

δ-opioid receptors [2] = biological target: T1, δ-opioid receptors; test: Rat brain synaptosome (P2) binding, δ antagonist [3H]N,N(CH3)2-Dmt-Tic-OH (Example 47); conditions: for Antagonist K1μ/Kiδ: selectivity, Kiδ from antagonist radioligand [3H]N,N(CH3)2-Dmt-Tic-OH
μ-opioid receptors = biological target: T2, μ-opioid receptors (Rattus norvegicus, UniProt P33535); test: Rat brain synaptosome (P2) binding, [3H]DAGO (Example 47)
T2 construct: assayed with a rat brain synaptosomal preparation (P2); from tissue; host or cells: rat brain P2 synaptosomes
T2 sequence (P33535 whole entry): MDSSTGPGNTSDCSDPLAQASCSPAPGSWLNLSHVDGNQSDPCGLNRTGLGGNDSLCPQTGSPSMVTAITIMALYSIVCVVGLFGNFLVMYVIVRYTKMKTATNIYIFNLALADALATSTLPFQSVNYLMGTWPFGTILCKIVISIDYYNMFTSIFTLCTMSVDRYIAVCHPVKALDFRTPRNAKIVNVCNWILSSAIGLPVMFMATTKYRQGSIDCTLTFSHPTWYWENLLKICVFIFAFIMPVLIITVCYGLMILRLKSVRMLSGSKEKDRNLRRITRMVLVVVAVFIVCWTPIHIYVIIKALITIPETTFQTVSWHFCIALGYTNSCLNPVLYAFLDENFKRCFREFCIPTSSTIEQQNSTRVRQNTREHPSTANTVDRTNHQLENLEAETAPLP

δ receptors = δ receptors (Mus musculus, UniProt P32300)
Chain of δ receptors (P32300 whole entry): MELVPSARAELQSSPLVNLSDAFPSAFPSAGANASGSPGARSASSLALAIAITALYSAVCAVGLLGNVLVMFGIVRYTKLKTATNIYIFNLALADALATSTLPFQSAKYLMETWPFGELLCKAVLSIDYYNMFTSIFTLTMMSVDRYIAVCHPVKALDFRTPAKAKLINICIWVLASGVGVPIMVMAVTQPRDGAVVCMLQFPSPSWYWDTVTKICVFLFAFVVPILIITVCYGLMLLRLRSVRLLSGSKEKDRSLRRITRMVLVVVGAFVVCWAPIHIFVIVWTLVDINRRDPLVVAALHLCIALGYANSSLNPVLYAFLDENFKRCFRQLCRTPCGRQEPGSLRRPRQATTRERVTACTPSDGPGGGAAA
Description: (§1) The functional bioactivity of the present inventive compounds was assessed using standard functional bioassays of δ and μ activity in MVD and GPI (Salvadori et al. (1995), supra; and Salvadori et al., J. Med. Chem. 36: 3748-3756 (1993)). […] Dose-response curves were obtained (Salvadori et al. (1995), supra) for both tissues. […] Data were derived from at least four independent tissue samples and dose-response curves from which the pA2 values were determined (Salvadori et al. (1997), supra) according to Arunlakshana and Schild (Br. J. Pharmacol. 14: 48-58 (1959)).

μ receptors = μ receptors (Cavia porcellus, UniProt P97266); test: Guinea pig ileum (GPI) functional bioassay (Example 48)
Chain of μ receptors (P97266 whole entry, looked up): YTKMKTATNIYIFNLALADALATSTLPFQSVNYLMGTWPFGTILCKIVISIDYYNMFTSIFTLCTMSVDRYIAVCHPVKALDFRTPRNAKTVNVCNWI
Description: as §1

[3] = rat brain synaptosomes (P2), mean ± SEM, n in parentheses, read-out: Kiδ(nM) [^3H]DPDPE
[4] = rat brain synaptosomes (P2), δ antagonist radioligand, mean ± SEM, n in parentheses, read-out: Kiδ(nM) [^3H]N,N(CH3)2-Dmt-Tic-OH
[5] = rat brain synaptosomes (P2), mean ± SEM, n in parentheses, read-out: Kiμ (nM) [^3H]DAGO
[6] = MVD Ke(nM), δ antagonism, Ke = antilog of pA2
[7] = MVD pA2 (range), δ antagonism against deltorphin C, mean (range)
[8] = δ antagonism, Ke = antilog of pA2

Compound	Ki (δ-opioid receptors [1]; [3])	Agonist K1μ/Kiδ (δ-opioid receptors [1])	Ki (δ-opioid receptors [2]; [4])	Antagonist K1μ/Kiδ (δ-opioid receptors [2])	Ki (μ-opioid receptors; [5])	bioactivity on MVD (δ), in words (δ receptors)	Kb (δ receptors; [6])	Kb (δ receptors; [7])	EC50 (μ receptors)	MVD Ke (δ receptors; [8])	δ/μ selectivity, in words (δ-opioid receptors [1])	δ affinity, in words (δ-opioid receptors [1])	bioactivity on GPI (μ), in words (μ receptors)	Ki (δ-opioid receptors [1])	Ki (δ-opioid receptors [2])	Ki (μ-opioid receptors)	EC50 (μ receptors; μ agonism, read-out: GPI ED50)	GPI Ke (μ receptors; μ antagonism)	Kb (μ receptors; μ antagonism, mean (range), read-out: GPI pA2 (range) (converted))
Cc1cc(O)cc(C)c1C[C@H](N)C(=O)N1Cc2ccccc2C[C@H]1CC(=O)O [Compound 1, H-Dmt-βTic-OH]	0.85 ± 0.2 nM	498	0.71 ± 0.04 nM	590	418 ± 86 nM	highest δ-antagonist functional bioactivities	1.41 nM	1.58 nM	> 10 µM	–	–	–	–	–	–	–	–	–	–
Cc1cc(O)cc(C)c1CC(CN)C(=O)N1Cc2ccccc2C[C@H]1C(=O)O (stereo partly drawn) [Compound 2, H-αDmt-Tic-OH]	11.2 ± 3.5 nM	155	475 ± 37 nM	4	1740 ± 16 nM	–	–	–	–	–	–	–	–	–	–	–	–	–	–
Cc1cc(O)cc(C)c1C[C@@H](C(=O)N1Cc2ccccc2C[C@H]1C(=O)O)N1CCCC1 [Compound 4, [des-NH2-α-pyrrolidine-1-yl]-Dmt-Tic-OH]	1.62 ± 0.19 nM	502	1.42 ± 0.14 nM	573	814 ± 65 nM	detrimental for all bioactivity measurements on MVD	–	126 nM	> 10 µM	121 nM	–	–	–	–	–	–	–	–	–
Cc1cc(O)cc(C)c1C[C@@H](C(=O)N1Cc2ccccc2C[C@H]1C(=O)O)n1cccc1 [Compound 5, [des-NH2-α-pyrrole-1-yl]-Dmt-Tic-OH]	16.6 ± 2.5 nM	338	9.94 ± 2.5 nM	562	5590 ± 411 nM	detrimental for all bioactivity measurements on MVD	–	–	–	408 nM	–	–	–	–	–	–	–	–	–
Cc1cc(O)cc(C)c1C[C@H](N)C(=O)N1Cc2ccccc2C[C@H]1C(=O)NN [Compound 6, H-Dmt-Tic-NHNH2] (H-[Dmt]-[Tic]-NHNH2)	0.99 ± 0.04 nM	86	42 ± 7.9 nM	2	85.1 ± 7.3 nM	–	–	–	–	–	essentially nonselective	–	–	–	–	–	–	–	–
COC(=O)[C@@H]1Cc2ccccc2CN1C(=O)[C@@H](N)Cc1c(C)cc(O)cc1C [Compound 8, H-Dmt-Tic-OMe] (H-[Dmt]-[Tic]-OMe)	9.64 ± 2.2 nM	44	500 ± 90 nM	0.8	423 ± 25 nM	–	–	–	–	–	weakly μ selective	lost high δ affinity	–	–	–	–	–	–	–
Cc1cc(O)cc(C)c1C[C@H](N)C(=O)N1Cc2ccccc2C[C@H]1C(=O)Nc1nnn[nH]1 [Compound 10, H-Dmt-Tic-NH-tetrazole-5-yl]	0.7 ± 0.03 nM	53	9.75 ± 1.73 nM	4	37 ± 4.5 nM	weak δ antagonist	–	–	–	36.3 nM	essentially nonselective	–	very minimal activity on GPI	–	–	–	–	–	–
Cc1cc(O)cc(C)c1C[C@H](N)C(=O)N1Cc2ccccc2C[C@@H]1C(=O)NC12CC3CC(CC(C3)C1)C2 [Compound 12, H-Dmt-D-Tic-NH-1-adamantane]	–	0.01	–	0.004	–	–	> 10000 nM	–	1.68 µM	–	moderately μ selective	lost high δ affinity	μM activity on GPI	24.5 ± 4.9 nM	70.3 ± 7.25 nM	0.26 ± 0.08 nM	–	–	–
CNC(=O)[C@@H]1Cc2ccccc2CN1C(=O)[C@H](Cc1c(C)cc(O)cc1C)N(C)C [Compound 13, N,N(Me)2-Dmt-Tic-NHMe]	0.54 ± 0.07 nM	669	0.28 ± 0.02 nM	1268	359 ± 62 nM	–	–	0.407 nM	–	0.41 nM	–	–	weak μ antagonist	–	–	–	> 10 µM	0.39 µM	0.389 µM
Cc1cc(O)cc(C)c1C[C@@H](C(=O)N1Cc2ccccc2C[C@@H]1C(=O)NC12CC3CC(CC(C3)C1)C2)N(C)C [Compound 16, N,N(Me)2-Dmt-D-Tic-NH-1-adamantane]	–	0.36	–	0.42	–	greatly reduced bioactivity on MVD	–	123 nM	4.48 µM	128 nM	weakly μ selective	lost high δ affinity	μM activity on GPI	140 ± 30 nM	120 ± 25.9 nM	50.5 ± 2.6 nM	–	–	–

Source: patent publication US6916905B2, “Dmt-Tic di-and tri-peptidic derivatives and related compositions and methods of use” (The United States of America as represented by the …, priority 2000, dated 2005)
